According to PMC5107951 (Scientific Reports, 2016):

What was measured:
Assay type in all cases: binding
α7 nAChR [1] = target: T1, α7 nAChR (Homo sapiens, UniProt P36544)
α7 nAChR [2] = target: T1, α7 nAChR; assay: cell-based
α7 nAChR [3] = target: T1, α7 nAChR; remark: listed apart in the source

T1 sequence (P36544 23-502 limits assumed): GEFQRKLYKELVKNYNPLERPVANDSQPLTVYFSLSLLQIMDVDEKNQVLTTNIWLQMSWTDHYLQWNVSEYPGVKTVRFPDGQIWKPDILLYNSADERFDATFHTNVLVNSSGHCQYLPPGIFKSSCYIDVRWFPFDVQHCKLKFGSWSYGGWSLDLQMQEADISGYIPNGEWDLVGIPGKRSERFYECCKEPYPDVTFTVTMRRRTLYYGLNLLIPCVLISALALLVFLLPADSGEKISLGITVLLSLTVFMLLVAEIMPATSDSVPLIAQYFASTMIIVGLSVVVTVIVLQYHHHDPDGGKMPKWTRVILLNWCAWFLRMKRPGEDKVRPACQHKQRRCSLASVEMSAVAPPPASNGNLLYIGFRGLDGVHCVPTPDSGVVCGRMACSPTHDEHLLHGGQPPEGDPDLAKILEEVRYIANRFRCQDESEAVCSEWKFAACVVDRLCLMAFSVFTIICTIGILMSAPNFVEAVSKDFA

α-cobratoxin
removal of [125I]-PnIA[R9, L10] from α7 nAChR (in words) (α7 nAChR [1]): could not completely remove the radioligand from the target even after a 2-hour incubation | Hill coefficient, “replaceable” binding at the orthosteric site (α7 nAChR [2]): 1.0 ± 0.3 | radioligand [125I]-PnIA[R9, L10] not displaced (α7 nAChR [2]): ≈ 25% | IC50 (α7 nAChR [2]; read-out: IC50 of [125I]-PnIA[R9, L10] binding inhibition, “replaceable” binding at the orthosteric site): 11 ± 3 nM | inhibition of [125I]-PnIA[R5, R9, L10, R14] binding (in words) (α7 nAChR [3]): failed to achieve a 50% inhibition
